Assay results: the supplement of paper PMC10307832

Columns and labels:
Assay in all cases: relative viability (nuclei count vs DMSO), 5 days (fraction); higher = more cells survive
Sunitinib + OSI-027 = compound: CCN(CC)CCNC(=O)c1c(C)[nH]c(/C=C2\C(=O)Nc3ccc(F)cc32)c1C [Sunitinib] + COc1cccc2cc(-c3nc([C@H]4CC[C@H](C(=O)O)CC4)n4ncnc(N)c34)[nH]c12 [OSI-027] (partner 0.5 µM)
Outline: (§1)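 Medians of duplicate plates are given as relative viability. That measure is the nuclei count in treated wells divided by the count in vehicle wells. Counts were taken on 4× images of lung cancer cell lines in 1536-well plates, 5 days after pin-tool dosing the day after seeding with one drug alone or a fixed anchor-drug dose plus five library-drug doses (not always all listed) in √10 steps.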

Sunitinib + Trametinib = compound: CCN(CC)CCNC(=O)c1c(C)[nH]c(/C=C2\C(=O)Nc3ccc(F)cc32)c1C [Sunitinib] + CC(=O)Nc1cccc(-n2c(=O)n(C3CC3)c(=O)c3c(Nc4ccc(I)cc4F)n(C)c(=O)c(C)c32)c1 [Trametinib] (partner 0.02 µM)
Outline: as §1

Sunitinib + Phenformin = compound: CCN(CC)CCNC(=O)c1c(C)[nH]c(/C=C2\C(=O)Nc3ccc(F)cc32)c1C [Sunitinib] + N=C(N)NC(=N)NCCc1ccccc1 [Phenformin] (partner 250 µM)
Outline: as §1

Sunitinib = compound: CCN(CC)CCNC(=O)c1c(C)[nH]c(/C=C2\C(=O)Nc3ccc(F)cc32)c1C [Sunitinib]
Outline: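 Viability was defined as treated-well nuclei divided by vehicle-well nuclei, with the median taken over replicate plates. Cells from lung cancer lines sat overnight at 37 °C in 1536-well plates, received five √10-spaced library-drug doses by pinning on vehicle-anchored plates, and grew 5 days without medium change before one-step fixation, permeabilisation and Hoechst staining, 4× imaging and MetaXpress nuclear counts. Only plates with control CV under 25% and at least one doubling were kept.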

| Cell Line | relative viability (Sunitinib + OSI-027; first compound 0.02 µM) | relative viability (Sunitinib + OSI-027; first compound 0.06325 µM) | relative viability (Sunitinib + OSI-027; first compound 0.6325 µM) | relative viability (Sunitinib + OSI-027; first compound 2 µM) | relative viability (Sunitinib + Trametinib; first compound 0.02 µM) | relative viability (Sunitinib + Trametinib; first compound 0.06325 µM) | relative viability (Sunitinib + Trametinib; first compound 0.2 µM) | relative viability (Sunitinib + Trametinib; first compound 0.6325 µM) | relative viability (Sunitinib + Trametinib; first compound 2 µM) | relative viability (Sunitinib + Phenformin; first compound 0.02 µM) | relative viability (Sunitinib + Phenformin; first compound 0.06325 µM) | relative viability (Sunitinib + Phenformin; first compound 0.2 µM) | relative viability (Sunitinib + Phenformin; first compound 0.6325 µM) | relative viability (Sunitinib + Phenformin; first compound 2 µM) | relative viability (Sunitinib; 0.02 µM) | relative viability (Sunitinib; 0.06325 µM) | relative viability (Sunitinib; 0.6325 µM) | relative viability (Sunitinib; 2 µM) | relative viability (Sunitinib + OSI-027; first compound 0.2 µM) | relative viability (Sunitinib; 0.2 µM) |
| --- | --- | --- | --- | --- | --- | --- | --- | --- | --- | --- | --- | --- | --- | --- | --- | --- | --- | --- | --- | --- |
| NCI-H1437 | 0.873 | 0.918 | 0.855 | 0.885 | 0.478 | 0.539 | 0.611 | 0.607 | 0.537 | 0.362 | 0.314 | 0.321 | 0.297 | 0.323 | 1.03 | 1.03 | 0.996 | 1.09 |  |  |
| NCI-H1650 | 0.577 | 0.65 | 0.768 | 0.513 | 0.509 | 0.63 | 0.874 | 0.621 | 0.552 | 0.384 | 0.492 | 0.382 | 0.533 | 0.371 |  | 1.05 | 0.942 | 0.903 | 0.527 | 0.964 |
| NCI-H1651 | 0.57 |  | 0.534 | 0.714 | 0.801 |  | 0.901 |  | 0.847 | 0.289 | 0.332 | 0.352 | 0.353 | 0.368 | 0.938 | 1.1 | 0.996 | 1.03 | 0.73 |  |
| NCI-H1666 | 0.835 | 0.877 | 0.924 | 0.822 | 0.843 | 0.888 | 1.09 | 0.879 | 0.882 | 0.569 | 0.587 | 0.55 | 0.586 | 0.538 | 1.02 | 1.07 | 1.05 |  | 0.924 | 1.1 |
| NCI-H1734 | 0.613 | 0.683 | 0.608 | 0.511 | 0.595 | 0.665 | 0.747 | 0.653 | 0.644 | 0.345 | 0.46 | 0.474 | 0.392 | 0.358 | 0.916 | 1.11 | 1.05 | 0.981 | 0.7 | 1.04 |
| NCI-H1755 | 0.745 | 0.821 | 0.748 | 0.761 | 0.763 | 0.768 | 0.92 | 0.736 | 0.767 | 0.574 | 0.672 | 0.675 | 0.692 | 0.642 |  |  | 1.03 | 1.05 | 0.743 | 1.04 |
| NCI-H1792 | 0.667 | 0.716 | 0.691 | 0.481 | 0.463 | 0.417 | 0.533 | 0.442 | 0.377 |  | 0.381 | 0.351 | 0.418 | 0.31 | 0.802 | 1.11 | 0.924 | 1.02 | 0.829 | 1.18 |
| NCI-H1793 | 0.278 | 0.245 | 0.274 | 0.194 |  | 0.364 | 0.377 | 0.514 | 0.331 | 0.349 | 0.319 | 0.483 | 0.326 | 0.333 |  | 0.974 | 0.964 | 0.831 | 0.252 |  |
| NCI-H1915 | 0.605 | 0.645 | 0.612 | 0.618 | 0.291 | 0.291 | 0.304 | 0.298 | 0.261 | 0.348 | 0.396 | 0.43 | 0.367 | 0.368 | 0.943 | 1.05 | 1.03 | 1.07 | 0.71 | 1.02 |
| NCI-H1944 | 0.365 | 0.437 | 0.513 | 0.409 | 0.401 | 0.423 | 0.457 | 0.437 | 0.43 | 0.183 | 0.206 | 0.214 | 0.203 | 0.199 | 0.914 | 1.09 | 1.05 | 1.1 | 0.514 | 1.15 |
| NCI-H1975 | 0.62 | 0.826 | 0.633 | 0.498 | 0.322 | 0.361 | 0.33 | 0.421 | 0.316 | 0.399 | 0.442 | 0.425 | 0.427 | 0.393 | 0.911 |  | 0.963 | 0.855 | 0.805 | 1.06 |
| NCI-H1993 | 0.598 | 0.482 | 0.568 | 0.554 | 0.51 | 0.53 | 0.448 | 0.424 | 0.651 | 0.541 | 0.501 | 0.545 | 0.479 | 0.53 | 0.963 | 0.992 | 0.915 | 0.98 | 0.551 | 1.08 |
| NCI-H2009 | 0.578 | 0.772 | 0.771 | 0.666 | 0.242 | 0.332 | 0.274 | 0.25 | 0.181 | 0.446 | 0.501 | 0.461 | 0.465 | 0.429 | 0.957 | 1.07 | 1.11 |  | 0.704 | 1.07 |
| NCI-H2023 | 0.341 | 0.437 | 0.398 | 0.289 | 0.425 | 0.615 | 0.614 | 0.454 | 0.444 | 0.391 | 0.446 | 0.519 | 0.459 | 0.385 | 0.874 | 1.09 | 1.03 | 0.967 | 0.399 | 1.07 |
| NCI-H2085 | 0.761 | 0.768 | 0.96 | 1.06 | 0.5 | 0.515 | 0.515 | 0.634 | 0.71 | 0.686 | 0.916 | 0.788 | 0.877 | 0.754 | 0.999 | 1.04 | 1.03 | 1.04 | 0.73 | 1.01 |
| NCI-H2087 | 0.423 | 0.755 | 0.577 | 0.449 | 0.2 | 0.234 | 0.266 | 0.211 | 0.237 | 0.456 | 0.398 | 0.545 | 0.507 | 0.42 | 1.16 | 1.25 | 1.1 | 1.11 | 0.636 | 1.13 |
